Key:
[1] = test system: rabbit serum obtained by immunizing a rabbit with the SARS-CoV strain Frankfurt 1; format: binding; set-up: Binding of a rabbit serum to linear peptides / Binding of a rabbit serum to looped peptides / Rabbit serum linear peptides / Rabbit serum looped peptides / Binding of a rabbit serum to linear peptides of protein N of SARS-CoV Urbani (Rabbit serum linear peptides) / Binding of a rabbit serum to looped/cyclic peptides of protein N of SARS-CoV Urbani (Rabbit serum looped peptides): unit not given here
[2] = test system: control sera (pooled serum of ten healthy LUMC hospital workers; commercial negative donor pooled serum from the Dutch bloodbank); format: binding, human; set-up: Binding of Control serum LUMC to linear peptides / Binding of Control serum Blood-bank to linear peptides / Binding of Control serum LUMC to looped peptides / Binding of Control Serum Blood-Bank to Looped peptides / Binding of Control serum LUMC to linear peptides of the protein M of SARS-CoV Urbani / Binding of Control serum Blood-bank to linear peptides of the protein M of SARS-CoV Urbani / Binding of Control serum LUMC to looped peptides of the protein M of SARS-CoV Urbani / Binding of Control Serum Blood-Bank to Looped peptides of the protein M of SARS-CoV Urbani: unit not given here
[3] = test system: antibodies in sera from SARS patients (sera 1a, 1b, 2, 6, 37, 62, London, SARS-yellow, SARS-green); format: binding, human; set-up: Binding of serum 6 to linear peptides of protein X1 of SARS-CoV Urbani / Binding of serum 37 to linear peptides of protein X1 of SARS-CoV Urbani / Binding of serum 6 to looped/cyclic peptide (PEPSCAN-ELISA) / Binding of serum 37 to looped/cyclic peptide (PEPSCAN-ELISA) / Binding of serum 37 to looped/cyclic peptides of protein X1 of SARS-CoV Urbani / Binding of serum 6 to linear peptides of protein X2 / Binding of serum 37 to linear peptides of protein X2 / Binding of serum 37 to looped/cyclic peptides of protein X2 of SARS-CoV Urbani / Binding of serum 6 to linear peptides of protein M of SARS-CoV Urbani / Binding of serum 37 to linear peptides of protein M of SARS-CoV Urbani / Binding of serum 6 to looped/cyclic peptides of protein M of SARS-CoV Urbani / Binding of serum 37 to looped/cyclic peptides of protein M of SARS-CoV Urbani / Binding of serum 6 to linear peptides of protein X3 of SARS-CoV Urbani / Binding of serum 37 to linear peptides of protein X3 of SARS-CoV Urbani / Binding of serum 37 to looped/cyclic peptides of protein X3 of SARS-CoV Urbani / Binding of serum 6 to linear peptides of protein X4 of SARS-CoV Urbani / Binding of serum 37 to linear peptides of protein X4 of SARS-CoV Urbani / Binding of serum 37 to looped/cyclic peptides of protein X4 of SARS-CoV Urbani / Binding of serum 6 to linear peptides of protein X5 of SARS-CoV Urbani / Binding of serum 37 to linear peptides of protein X5 of SARS-CoV Urbani / Binding of serum 37 to looped/cyclic peptides of protein X5 of SARS-CoV Urbani / Binding of serum 6 to linear peptides of protein N of SARS-CoV Urbani / Binding of serum 37 to linear peptides of protein N of SARS-CoV Urbani / Binding of serum 6 to linear peptide (PEPSCAN-ELISA) / Binding of serum 1a to looped/cyclic peptides of protein N of SARS-CoV Urbani / Binding of serum 1b to looped/cyclic peptides of protein N of SARS-CoV Urbani / Binding of serum 2 to looped/cyclic peptides of protein N of SARS-CoV Urbani / Binding of serum 6 to looped/cyclic peptides of protein N of SARS-CoV Urbani / Binding of serum 37 to looped/cyclic peptides of protein N of SARS-CoV Urbani / Binding of serum 62 to looped/cyclic peptides of protein N of SARS-CoV Urbani / Binding of serum London to looped/cyclic peptides of protein N of SARS-CoV Urbani / Binding of serum SARS-green to looped/cyclic peptides of protein N of SARS-CoV Urbani: unit not given here

Row | Sequence | Rabbit serum linear peptides [1] | Rabbit serum looped peptides [1] | Binding of Control Serum Blood-Bank to Looped peptides [2] | Binding of Control serum Blood-bank to linear peptides [2] | Binding of Control serum LUMC to linear peptides [2] | Binding of Control serum LUMC to looped peptides [2] | Binding of serum 1a to linear peptides of protein X4 of SARS-CoV Urbani [3] | Binding of serum 1b to linear peptides of protein X4 of SARS-CoV Urbani [3] | Binding of serum 2 to linear peptides of protein X4 of SARS-CoV Urbani [3] | Binding of serum 6 to linear peptides of protein X4 of SARS-CoV Urbani [3] | Binding of serum 37 to linear peptides of protein X4 of SARS-CoV Urbani [3] | Binding of serum 62 to linear peptides of protein X4 of SARS-CoV Urbani [3] | Binding of serum London to linear peptides of protein X4 of SARS-CoV Urbani [3] | Binding of serum SARS-green to linear peptides of protein X4 of SARS-CoV Urbani [3] | Binding of serum SARS-yellow to linear peptides of protein X4 of SARS-CoV Urbani [3] | Recognition of the peptide by sera of SARS-CoV infected individuals, and form (linear, looped/cyclic) in which it is recognized [3] | also measured
1 | RQEEVQQELYSPLFL | 0.5 | 0.6 | 0.8 | 0.7 | 0.6 | 0.9 | 0.8 | 0.6 | 0.5 | 0.5 | 0.8 | 0.8 | 0.7 | 0.7 | 0.7 | recognized in looped/cyclic form | –
2 | QEEVQQELYSPLFLI | 0.4 | 0.4 | 0.7 | 0.8 | 0.8 | 0.8 | 0.8 | 0.9 | 0.6 | 0.6 | 0.8 | 0.8 | 0.8 | 1.0 | 0.8 | recognized in looped/cyclic form | –
3 | QTCTPNVTINCQDPA | 0.3 | 0.0 | 0.4 | 0.6 | 0.4 | 0.3 | – | – | – | – | – | – | – | – | – | – | Binding of serum 1a to linear peptides of protein X5 of SARS-CoV Urbani [3]: 0.8; Binding of serum 1a to looped/cyclic peptides of protein X5 of SARS-CoV Urbani [3]: 0.4; Binding of serum 1b to linear peptides of protein X5 of SARS-CoV Urbani [3]: 0.7; Binding of serum 1b to looped/cyclic peptides of protein X5 of SARS-CoV Urbani [3]: 0.1; Binding of serum 2 to linear peptides of protein X5 of SARS-CoV Urbani [3]: 0.6; Binding of serum 2 to looped/cyclic peptides of protein X5 of SARS-CoV Urbani [3]: 0.3; Binding of serum 6 to linear peptides of protein X5 of SARS-CoV Urbani [3]: 0.8; Binding of serum 6 to looped/cyclic peptides of protein X5 of SARS-CoV Urbani [3]: 0.2; Binding of serum 37 to linear peptides of protein X5 of SARS-CoV Urbani [3]: 0.8; Binding of serum 37 to looped/cyclic peptides of protein X5 of SARS-CoV Urbani [3]: 0.3; Binding of serum 62 to linear peptides of protein X5 of SARS-CoV Urbani [3]: 0.8; Binding of serum 62 to looped/cyclic peptides of protein X5 of SARS-CoV Urbani [3]: 0.2; Binding of serum London to linear peptides of protein X5 of SARS-CoV Urbani [3]: 0.9; Binding of serum London to looped/cyclic peptides of protein X5 of SARS-CoV Urbani [3]: 0.1; Binding of serum SARS-green to linear peptides of protein X5 of SARS-CoV Urbani [3]: 0.8; Binding of serum SARS-green to looped/cyclic peptides of protein X5 of SARS-CoV Urbani [3]: 0.0; Binding of serum SARS-yellow to linear peptides of protein X5 of SARS-CoV Urbani [3]: 0.1; Binding of serum SARS-yellow to looped/cyclic peptides of protein X5 of SARS-CoV Urbani [3]: 0.1

— patent US20070128217A1 (priority 2003, published 2007)
